Assay [1] addresses T1, human α1H T-type channels (Homo sapiens, UniProt O95180).
T1 construct: expressed in transfected cells; host or cells: HEK 293
Kind of assay: T-type calcium channel block, whole cell patch clamp in HEK cells (α1H). The conditions noted are these: HEK cells, patch clamp, mainly non-inactivated protocol; values above 10 μM shown as 10 μM; read-out: T-type Calcium Channel Block α1H IC50. The class given is cell-based.

Assay [2] deals with T2, human α1G T-type channels (Homo sapiens, UniProt O43497).
T2 construct: expressed in transfected cells; host or cells: HEK 293
T2 sequence (O43497 whole entry): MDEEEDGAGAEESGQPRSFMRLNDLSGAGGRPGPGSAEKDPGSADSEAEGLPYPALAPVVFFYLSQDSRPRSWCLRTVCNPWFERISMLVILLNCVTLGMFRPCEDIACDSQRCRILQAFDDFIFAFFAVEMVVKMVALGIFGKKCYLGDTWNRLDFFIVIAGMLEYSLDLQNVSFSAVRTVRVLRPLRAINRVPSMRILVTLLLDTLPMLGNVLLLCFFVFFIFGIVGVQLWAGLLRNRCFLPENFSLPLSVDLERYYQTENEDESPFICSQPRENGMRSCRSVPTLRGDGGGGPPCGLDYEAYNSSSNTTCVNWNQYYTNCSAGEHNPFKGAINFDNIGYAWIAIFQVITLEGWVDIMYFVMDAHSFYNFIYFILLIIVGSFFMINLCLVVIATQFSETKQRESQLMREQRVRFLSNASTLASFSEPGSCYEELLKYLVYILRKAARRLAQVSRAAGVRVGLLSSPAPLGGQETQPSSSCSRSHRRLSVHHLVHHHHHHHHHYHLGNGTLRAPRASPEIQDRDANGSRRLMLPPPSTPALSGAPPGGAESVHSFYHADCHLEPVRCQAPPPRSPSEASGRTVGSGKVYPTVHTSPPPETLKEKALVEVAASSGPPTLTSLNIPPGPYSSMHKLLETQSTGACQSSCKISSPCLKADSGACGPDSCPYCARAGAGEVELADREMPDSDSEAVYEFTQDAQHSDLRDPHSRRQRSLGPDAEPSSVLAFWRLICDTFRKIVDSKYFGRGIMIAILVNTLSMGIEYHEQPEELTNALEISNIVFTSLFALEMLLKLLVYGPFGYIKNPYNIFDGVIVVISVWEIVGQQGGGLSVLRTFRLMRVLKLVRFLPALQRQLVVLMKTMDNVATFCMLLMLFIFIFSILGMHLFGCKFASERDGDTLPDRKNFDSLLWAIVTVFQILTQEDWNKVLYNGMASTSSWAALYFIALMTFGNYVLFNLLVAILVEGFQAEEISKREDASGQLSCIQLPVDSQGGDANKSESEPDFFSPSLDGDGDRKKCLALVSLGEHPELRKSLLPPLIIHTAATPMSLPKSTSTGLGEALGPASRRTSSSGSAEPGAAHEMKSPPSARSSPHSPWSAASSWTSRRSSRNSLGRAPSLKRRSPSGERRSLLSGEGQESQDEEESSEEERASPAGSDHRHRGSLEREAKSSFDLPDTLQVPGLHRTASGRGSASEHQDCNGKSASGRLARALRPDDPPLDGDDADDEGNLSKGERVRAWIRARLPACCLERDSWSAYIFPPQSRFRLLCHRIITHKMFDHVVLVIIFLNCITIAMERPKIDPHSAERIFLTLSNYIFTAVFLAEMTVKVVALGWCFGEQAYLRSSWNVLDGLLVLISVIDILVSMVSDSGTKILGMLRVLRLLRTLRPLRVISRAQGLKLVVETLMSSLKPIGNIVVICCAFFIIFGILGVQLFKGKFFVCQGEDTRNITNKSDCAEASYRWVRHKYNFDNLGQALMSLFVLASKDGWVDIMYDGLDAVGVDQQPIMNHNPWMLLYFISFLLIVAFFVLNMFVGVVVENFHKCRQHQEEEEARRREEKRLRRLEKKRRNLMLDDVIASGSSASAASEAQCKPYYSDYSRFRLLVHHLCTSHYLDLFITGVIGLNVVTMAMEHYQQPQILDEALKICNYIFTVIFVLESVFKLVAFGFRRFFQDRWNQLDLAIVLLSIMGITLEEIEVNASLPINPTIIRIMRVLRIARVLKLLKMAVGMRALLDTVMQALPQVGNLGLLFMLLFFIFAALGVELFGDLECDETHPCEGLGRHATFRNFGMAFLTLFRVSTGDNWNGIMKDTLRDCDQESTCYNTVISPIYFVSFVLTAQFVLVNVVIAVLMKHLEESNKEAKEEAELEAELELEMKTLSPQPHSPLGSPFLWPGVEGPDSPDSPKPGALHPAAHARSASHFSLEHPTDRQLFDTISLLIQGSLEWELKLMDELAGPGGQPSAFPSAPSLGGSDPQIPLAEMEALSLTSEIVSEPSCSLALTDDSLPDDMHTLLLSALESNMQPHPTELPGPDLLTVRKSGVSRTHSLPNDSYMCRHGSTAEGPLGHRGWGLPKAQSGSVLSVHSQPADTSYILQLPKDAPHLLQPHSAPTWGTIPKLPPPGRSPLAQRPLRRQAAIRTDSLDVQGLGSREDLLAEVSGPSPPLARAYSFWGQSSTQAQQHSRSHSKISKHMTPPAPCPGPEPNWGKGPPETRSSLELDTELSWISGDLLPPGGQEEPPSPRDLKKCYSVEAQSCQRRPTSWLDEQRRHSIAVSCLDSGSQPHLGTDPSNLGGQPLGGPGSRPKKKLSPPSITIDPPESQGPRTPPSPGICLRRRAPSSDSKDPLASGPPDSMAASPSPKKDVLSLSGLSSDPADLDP
Description: T-type calcium channel block, whole cell patch clamp in HEK cells (α1G). The conditions noted are these: HEK cells, patch clamp, mainly non-inactivated protocol; values above 10 μM shown as 10 μM, below 0.30 μM shown as 0.30 μM; read-out: T-type Calcium Channel Block α1G IC50. The class given is cell-based.

Among the data in patent publication US8569344B2, “N-piperidinyl acetamide derivatives as calcium channel blockers” (Zalicus Pharmaceuticals Ltd., priority 2008, dated 2013) are IC50 values, retold here.

What is called IC50 is the concentration that inhibits the measured activity by half.

T1 sequence (O95180 whole entry): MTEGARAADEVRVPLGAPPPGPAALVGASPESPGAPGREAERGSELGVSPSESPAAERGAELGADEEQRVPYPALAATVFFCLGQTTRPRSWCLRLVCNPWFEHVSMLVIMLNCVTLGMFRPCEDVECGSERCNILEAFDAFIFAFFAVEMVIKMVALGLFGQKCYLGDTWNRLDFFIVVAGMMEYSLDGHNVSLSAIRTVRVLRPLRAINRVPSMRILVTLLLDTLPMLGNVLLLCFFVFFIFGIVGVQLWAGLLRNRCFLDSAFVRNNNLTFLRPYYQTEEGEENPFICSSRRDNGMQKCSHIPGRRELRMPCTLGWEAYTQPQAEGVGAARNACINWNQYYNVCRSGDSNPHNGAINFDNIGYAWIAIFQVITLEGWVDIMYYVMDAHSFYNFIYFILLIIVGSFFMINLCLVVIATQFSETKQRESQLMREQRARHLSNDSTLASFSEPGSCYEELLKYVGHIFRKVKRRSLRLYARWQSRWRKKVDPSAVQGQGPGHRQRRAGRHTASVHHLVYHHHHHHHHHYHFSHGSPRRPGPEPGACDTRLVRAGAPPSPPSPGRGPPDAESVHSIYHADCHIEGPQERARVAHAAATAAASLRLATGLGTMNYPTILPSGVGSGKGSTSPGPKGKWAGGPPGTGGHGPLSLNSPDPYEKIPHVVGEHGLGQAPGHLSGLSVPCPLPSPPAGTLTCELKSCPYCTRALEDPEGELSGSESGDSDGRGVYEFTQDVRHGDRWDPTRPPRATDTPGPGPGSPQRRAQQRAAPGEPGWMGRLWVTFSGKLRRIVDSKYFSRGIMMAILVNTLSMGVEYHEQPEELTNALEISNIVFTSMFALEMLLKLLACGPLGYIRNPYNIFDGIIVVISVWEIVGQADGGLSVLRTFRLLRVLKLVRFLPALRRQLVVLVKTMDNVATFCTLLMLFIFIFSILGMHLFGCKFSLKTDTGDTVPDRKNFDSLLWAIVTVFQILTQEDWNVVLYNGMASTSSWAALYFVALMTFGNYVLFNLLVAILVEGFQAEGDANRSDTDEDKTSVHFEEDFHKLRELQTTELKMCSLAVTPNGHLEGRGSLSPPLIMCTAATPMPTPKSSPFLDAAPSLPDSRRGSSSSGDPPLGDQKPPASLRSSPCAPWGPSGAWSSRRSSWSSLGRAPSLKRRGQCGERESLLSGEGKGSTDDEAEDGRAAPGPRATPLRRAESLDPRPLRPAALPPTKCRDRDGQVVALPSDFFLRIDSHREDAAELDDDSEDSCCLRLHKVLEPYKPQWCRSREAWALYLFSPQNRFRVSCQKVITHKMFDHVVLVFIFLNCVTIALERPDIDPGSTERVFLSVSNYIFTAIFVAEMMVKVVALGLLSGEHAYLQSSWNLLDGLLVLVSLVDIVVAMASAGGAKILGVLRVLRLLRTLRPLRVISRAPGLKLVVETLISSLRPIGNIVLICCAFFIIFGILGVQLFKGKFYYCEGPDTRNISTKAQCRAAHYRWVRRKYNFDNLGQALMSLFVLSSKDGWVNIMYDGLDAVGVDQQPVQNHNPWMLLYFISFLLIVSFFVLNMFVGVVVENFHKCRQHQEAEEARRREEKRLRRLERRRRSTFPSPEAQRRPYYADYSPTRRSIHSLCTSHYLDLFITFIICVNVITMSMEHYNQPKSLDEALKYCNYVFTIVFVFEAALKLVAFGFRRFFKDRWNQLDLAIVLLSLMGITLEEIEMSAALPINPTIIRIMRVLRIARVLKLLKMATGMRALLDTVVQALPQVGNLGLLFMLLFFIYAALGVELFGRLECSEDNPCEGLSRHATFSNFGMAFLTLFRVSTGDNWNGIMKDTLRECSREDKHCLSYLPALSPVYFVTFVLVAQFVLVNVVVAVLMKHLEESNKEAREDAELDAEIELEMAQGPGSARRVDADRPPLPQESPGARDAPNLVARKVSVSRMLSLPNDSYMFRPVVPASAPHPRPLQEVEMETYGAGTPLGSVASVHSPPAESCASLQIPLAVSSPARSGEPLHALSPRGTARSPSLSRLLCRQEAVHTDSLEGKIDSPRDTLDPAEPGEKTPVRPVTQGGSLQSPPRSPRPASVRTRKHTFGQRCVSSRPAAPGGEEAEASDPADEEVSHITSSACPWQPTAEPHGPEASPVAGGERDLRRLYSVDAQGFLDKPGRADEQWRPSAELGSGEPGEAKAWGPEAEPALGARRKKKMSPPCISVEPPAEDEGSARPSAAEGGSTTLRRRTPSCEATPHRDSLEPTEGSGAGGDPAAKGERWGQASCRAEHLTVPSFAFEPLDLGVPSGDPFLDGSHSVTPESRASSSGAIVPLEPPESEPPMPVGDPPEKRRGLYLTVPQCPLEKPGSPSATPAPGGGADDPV

On to `COc1cc(F)cc(C(=O)NCC2CCN(CCNS(=O)(=O)C(C)C)CC2)c1` [Compound 318, 3-fluoro-5-methoxy-N-((1-(2-(1-methylethylsulfonamido)ethyl)piperidin-4-yl)methyl)benzamide], for which the figures for the IC50 in assay [1] and in assay [2] were 870 nM and 500 nM, respectively.

`CC(C)S(=O)(=O)NCCN1CCC(CNC(=O)c2cc(Br)cc(Br)c2)CC1` [Compound 319, 3,5-dibromo-N-((1-(2-(1-methylethylsulfonamido)ethyl)piperidin-4-yl)methyl)benzamide]: the IC50 in assay [1] was 150 nM; in assay [2], below 300 nM.

As for `COc1cc(Cl)cc(C(=O)NCC2CCN(CCNS(=O)(=O)C(C)C)CC2)c1` [Compound 320, 3-chloro-5-methoxy-N-((1-(2-(1-methylethylsulfonamido)ethyl)piperidin-4-yl)methyl)benzamide], the results for the IC50 in assay [1] and in assay [2] were 1620 nM and 760 nM, respectively.

With `COc1cc(F)cc(C(=O)NCC2CCN(CCNS(=O)(=O)C3CC3)CC2)c1` [Compound 321, N-((1-(2-(cyclopropanesulfonamido)ethyl)piperidin-4-yl)methyl)-3-fluoro-5-methoxybenzamide], the concentration for half-maximal inhibition (IC50) in assay [1] stood at 1920 nM; in assay [2] it was 1330 nM.

Regarding `COc1cc(Cl)cc(C(=O)NCC2CCN(CCNS(=O)(=O)C3CC3)CC2)c1` [Compound 322, 3-chloro-N-((1-(2-(cyclopropanesulfonamido)ethyl)piperidin-4-yl)methyl)-5-methoxybenzamide], the IC50 in assay [1] stood at 2140 nM; in assay [2], 4050 nM.

On to `O=C(NCC1CCN(CCNS(=O)(=O)C2CC2)CC1)c1cccc(Br)c1` [Compound 323, 3-bromo-N-((1-(2-(cyclopropanesulfonamido)ethyl)piperidin-4-yl)methyl)benzamide], for which the IC50 in assay [1] amounted to 2660 nM; in assay [2], 1870 nM.

In the case of `COc1ccc(C(=O)NCC2CCN(CCNS(=O)(=O)C3CC3)CC2)cc1OC` [Compound 324, N-((1-(2-(cyclopropanesulfonamido)ethyl)piperidin-4-yl)methyl)-3,4-dimethoxybenzamide], the IC50 in assay [1] and in assay [2] was above 10000 nM each time.

Turning to `COc1cc(F)cc(C(=O)NCC2CCN(CCNS(=O)(=O)C(F)(F)F)CC2)c1` [Compound 325, 3-fluoro-5-methoy-N-((1-(2-(trifluoromethylsulfonamido)ethyl)piperidin-4-yl)methyl)benzamide], the results for the IC50 in assay [1] and in assay [2] were 3390 nM and 6580 nM, respectively.

In the case of `COc1cc(Cl)cc(C(=O)NCC2CCN(CCNS(=O)(=O)C(F)(F)F)CC2)c1` [Compound 326, 3-chloro-5-methoxy-N-((1-(2-(trifluoromethylsulfonamido)ethyl)piperidin-4-yl)methyl)benzamide], the IC50 in assay [1] is 6990 nM; in assay [2], above 10000 nM.

For the molecule `COc1cc(C(=O)NCC2CCN(CCNS(=O)(=O)C(F)(F)F)CC2)cc(C(F)(F)F)c1` [Compound 327, 3-methoxy-5-(trifluoromethyl)-N-((1-(2-(trifluoromethylsulfonamido)ethyl)piperidin-4-yl)methyl)benzamide], the half-maximal inhibitory concentration (IC50) in assay [1] was 740 nM; in assay [2], below 300 nM.

For `O=C(NCC1CCN(CCNS(=O)(=O)C(F)(F)F)CC1)c1ccc(C(F)(F)F)c(F)c1` [Compound 328, 3-fluoro-4-(trifluoromethyl)-N-((1-(2-(trifluoromethylsulfonamido)ethyl)piperidin-4-yl)methyl)benzamide], the figures for the half-maximal inhibitory concentration (IC50) in assay [1] and in assay [2] were 1550 nM and 1030 nM, respectively.

Turning to `O=C(NCC1CCN(CCNS(=O)(=O)C(F)(F)F)CC1)c1cc(F)cc(Cl)c1` [Compound 329, 3-chloro-5-fluoro-N-((1-(2-(trifluoromethylsulfonamido)ethyl)piperidin-4-yl)methyl)benzamide], the figures for the IC50 in assay [1] and in assay [2] were 4050 nM and 3240 nM, respectively.

As for `O=C(NCC1CCN(CCNS(=O)(=O)C(F)(F)F)CC1)c1cccc(Br)c1` [Compound 330, 3-bromo-N-((1-(2-(trifluoromethylsulfonamido)ethyl)piperidin-4-yl)methyl)benzamide], the IC50 in assay [1] and in assay [2] was above 10000 nM throughout.

For `Cc1cc(F)cc(C(=O)NCC2CCN(CCNS(=O)(=O)C(F)(F)F)CC2)c1` [Compound 331, 3-fluoro-5-methyl-N-((1-(2-(trifluoromethylsulfonamido)ethyl)piperidin-4-yl)methyl)benzamide], the IC50 in assay [1] and in assay [2] was above 10000 nM in each case.

On to `O=C(NCC1CCN(CCNS(=O)(=O)C2CC2)CC1)c1cc(Cl)sc1Cl` [Compound 333, 2,5-dichloro-N-((1-(2-(cyclopropanesulfonamido)ethyl)piperidin-4-yl)methyl)thiophene-3-carboxamide], for which the IC50 was determined as 2420 nM in assay [1] and 800 nM in assay [2].

For the molecule `CC(C)(F)C(=O)NCCN1CCC(CNC(=O)c2cc(C(F)(F)F)cc(C(F)(F)F)c2)CC1` [Compound 335, N-((1-(2-(2-fluoro-2-methylpropanamido)ethyl)piperidin-4-yl)methyl)-3,5-bis(trifluoromethyl) benzamide], the results for the IC50 in assay [1] and in assay [2] were 310 nM and 330 nM, respectively.

Turning to `CC(C)(F)C(=O)NCCN1CCC(CNC(=O)c2cc(F)cc(C(F)(F)F)c2)CC1` [Compound 336, 3-fluoro-N-((1-(2-(2-fluoro-2-methylpropanamido)ethyl)piperidin-4-yl)methyl)-5-(trifluoromethyl)benzamide], the IC50 in assay [1] worked out at 1160 nM; in assay [2], 1750 nM.

On to `CC1(C(=O)NCCN2CCC(CNC(=O)c3cc(C(F)(F)F)cc(C(F)(F)F)c3)CC2)CC1` [Compound 337, N-((1-(2-(1-methylcyclopropanecarboxamido)ethyl)piperidin-4-yl)methyl)-3,5-bis(trifluoromethyl)benzamide], for which the half-inhibitory concentration (IC50) in assay [1] was 370 nM; in assay [2], 270 nM.

Consider `CC(C)(C(=O)NCCN1CCC(CNC(=O)c2cc(C(F)(F)F)cc(C(F)(F)F)c2)CC1)C(F)(F)F` [Compound 338, N-((1-(2-(3,3,3-trifluoro-2,2-dimethylpropanamido)ethyl)piperidin-4-yl)methyl)-3,5-bis(trifluoromethyl) benzamide], for which the figures for the IC50 in assay [1] and in assay [2] were 160 nM and below 300 nM, respectively.

In the case of `CC(C)(C(=O)NCCN1CCC(CNC(=O)c2cc(F)cc(C(F)(F)F)c2)CC1)C(F)(F)F` [Compound 339, 3-fluoro-N-((1-(2-(3,3,3-trifluoro-2,2-dimethylpropanamido)ethyl)piperidin-4-yl)methyl)-5-(trifluoromethyl)benzamide], the IC50 in assay [1] is 130 nM; in assay [2], below 300 nM.

Consider `O=C(NCC1CCN(CCNC(=O)C2(C(F)(F)F)CCCC2)CC1)c1cc(C(F)(F)F)cc(C(F)(F)F)c1` [Compound 340, 3,5-bis(trifluoromethyl)-N-((1-(2-(1-(trifluoromethyl)cyclopentanecarbox-amido)ethyl)piperidin-4-yl)methyl) benzamide], for which the values for the IC50 in assay [1] and in assay [2] were 120 nM and below 300 nM, respectively.

As for `O=C(NCC1CCN(CCNC(=O)C2(C(F)(F)F)CCCC2)CC1)c1cc(F)cc(C(F)(F)F)c1` [Compound 341, 3-fluoro-5-(trifluoromethyl)-N-((1-(2-(1-(trifluoromethyl)cyclopentanecarbox-amido)ethyl)piperidin-4-yl)methyl) benzamide], the results for the IC50 in assay [1] and in assay [2] were 120 nM and below 300 nM, respectively.

Turning to `O=C(NCC1CCN(CCNC(=O)C2(C(F)(F)F)CC2)CC1)c1cc(C(F)(F)F)cc(C(F)(F)F)c1` [Compound 342, 3,5-bis(trifluoromethyl)-N-((1-(2-(1-(trifluoromethyl)cyclopropanecarbox-amido)ethyl)piperidin-4-yl)methyl) benzamide], the IC50 in assay [1] was 70 nM; in assay [2], below 300 nM.

As to `CCCNC(=O)CN1CCC(CNC(=O)c2cc(C(F)(F)F)cc(C(F)(F)F)c2)CC1` [Compound 345, N-((1-(2-oxo-2-(propylamino)ethyl)piperidin-4-yl)methyl)-3,5-bis(trifluoromethyl)benzamide], the figures for the IC50 in assay [1] and in assay [2] were 110 nM and below 300 nM, respectively.

In the case of `CCC(C)(C)NC(=O)CN1CCC(CNC(=O)c2cc(C(F)(F)F)cc(C(F)(F)F)c2)CC1` [Compound 346, N-((1-(2-oxo-2-(tert-pentylamino)ethyl)piperidin-4-yl)methyl)-3,5-bis(trifluoromethyl) benzamide], the IC50 in assay [1] is 50 nM; in assay [2], below 300 nM.

As for `COCC(COC)NC(=O)CN1CCC(CNC(=O)c2cc(C(F)(F)F)cc(C(F)(F)F)c2)CC1` [Compound 347, N-((1-(2-(1,3-dimethoxypropan-2-ylamino)-2-oxoethyl)piperidin-4-yl)methyl)-3,5-bis(trifluoromethyl) benzamide], the IC50 is 240 nM in assay [1] and below 300 nM in assay [2].

In the case of `O=C(NCC1CCN(CC(=O)N2CC[C@H](C(F)(F)F)C2)CC1)c1cc(C(F)(F)F)cc(C(F)(F)F)c1` [Compound 348, (S)-N-((1-(2-oxo-2-(3-(trifluoromethyl)pyrrolidin-1-yl)ethyl)piperidin-4-yl)methyl)-3,5-bis(trifluoromethyl)benzamide], the IC50 in assay [1] is 110 nM; in assay [2] it was below 300 nM.

Regarding `O=C(NCC1CCN(CC(=O)N2CCC(F)CC2)CC1)c1cc(C(F)(F)F)cc(C(F)(F)F)c1` [Compound 349, N-((1-(2-(4-fluoropiperidin-1-yl)-2-oxoethyl)piperidin-4-yl)methyl)-3,5-bis(trifluoromethyl)benzamide], the results for the half-inhibitory concentration (IC50) in assay [1] and in assay [2] were 300 nM and below 300 nM, respectively.

Consider `CC(C)NC(=O)CN1CCC(CNC(=O)c2cc(F)cc(C(F)(F)F)c2)CC1` [Compound 350, 3-fluoro-N-((1-(2-(isopropylamino)-2-oxoethyl)piperidin-4-yl)methyl)-5-(trifluoromethyl)benzamide], for which the IC50 in assay [1] was 750 nM; in assay [2] it was 910 nM.
